Results on two compounds are retold here after patent publication US20230346816A1, “COMPOUNDS AND METHODS FOR TREATING VIRAL INFECTION” (priority 2020, published 2023).

The structures appear in SMILES notation.

In one assay the test system is COX-2. In words: Gene expression analysis (quantitative PCR) of COX-2 in primary human chondrocytes. The format is cell-based. The settings on record: IL-1β, 1 or 10 mM, 24 hrs, FIG. 4. On the procedure: (§1) Normal cartilage were obtained from autopsy services at the hospital of University of Virginia, approved by the Institutional Review Board. Articular cartilage were harvested from the femoral condyles and the tibial plateaus. Cartilage shavings were harvested at the operation room and placed in tissue culture medium (DMEM, 10% FBS, penicillin, streptomycin), and shipped to the laboratory at 4° C. Chondrocytes were isolated by incubation of the cartilage fragments with 0.01% collagenase NB4 (Fisher Scientific, Catalog No. 50-204-1257) for 4 hrs at 37° C. Cells were maintained in continuous monolayer cultures in DMEM containing 10% FBS. Experiments were performed with cells less than 3 passages. When necessary, trypsin were used for cell passage.
(§2) Cells, as prepared in the MATERIALS section, were seeded in a 24-well plate (3×10^5/well) and incubated with culture medium overnight. Cells were then treated with Compound 2 at various concentrations in DMEM containing 2% FBS (1 or 10 mM) for 24 hrs. […] Synthesis of cDNA from total RNA and the quantitative PCR were carried out by using the iscript™ cDNA synthesis kit and the iQ™ SYBR Green Supermix kit (Bio-Rad Laboratories, Hercules, CA), respectively. […] The threshold cycle (CT) value were calculated from amplification plots. Data were analyzed using the 2-ΔΔCT method with 18s rRNA serving as the reference. […]

The next assay concerns IL-6. Put plainly: Gene expression analysis (quantitative PCR) of IL-6 in primary human chondrocytes. The format is cell-based. As to conditions: IL-1β, 1 or 10 mM, 24 hrs, FIG. 3. On the procedure: as §1, §2
For the next assay, the system named is COVID-19. In words: Prospective observational cohort study of NAG in hospitalized COVID-19 patients vs retrospective control arm. The format is in vivo.
[1] abbreviates: NAG (n = 48) vs control (n = 100), univariate.
The mark [2] stands for this setting: multiple logistic regression, NAG (ref = control).

`CC(=O)N[C@H]1[C@H](O)O[C@H](C)C[C@@H]1O` [Cpd 2, 2-(acetylamino)-2,4,6-trideoxy-β-D-glucopyranose]: the “Expression of pro-inflammatory gene COX-2” value in the assay with COX-2 is “dose-dependent inhibition”. In addition, in the assay with IL-6, the “Expression of pro-inflammatory gene IL-6” value is “dose-dependent inhibition”.

`CC(=O)N[C@@H]1[C@@H](O)[C@H](O)[C@@H](CO)O[C@H]1O` [NAG, N-((2R,3R,4R,5S,6R)-2,4,5-trihydroxy-6-(hydroxymethyl)-tetrahydro-2H-pyran-3-yl)acetamide]: in the assay with COVID-19 (700 mg NAG every 12 hours plus standard of care, NAG group n = 48), the “Intubation, %” value is on record as “(16.7%)”. For the same compound, in the assay with COVID-19 (setting [1]), the “ICU admission, odds ratio” value was 0.53; the “Mortality, odds ratio” value is recorded as 0.37; the “Poor clinical outcome, odds ratio” value was 0.30. Further, the “Intubation, odds ratio” value in the assay with COVID-19 (NAG (n = 48) vs control (n = 100), univariate, Fisher's exact test) amounted to 0.60. Besides, the “Hospital LOS, Hodges-Lehmann difference” value in the assay on COVID-19 (NAG (n = 48) vs control (n = 100), univariate, Mann-Whitney U test) was determined as 0.0. Besides, in the assay on COVID-19 (NAG group n = 48), the “ICU admission, %” value is recorded as “(22.9%)” and the “Poor clinical outcome (combined death/hospice initiation), %” value is given as “(12.5%)”. The “Hospital LOS, median” value in the assay with COVID-19 (NAG group n = 48, median (IQR) [range]) came to 7. Moreover, the “Hospice initiation, %” value in the assay on COVID-19 (excludes patients that died, NAG n = 42) is reported as “(0%)”. In addition, in the assay with COVID-19 (excludes patients that died, NAG n = 42 vs control n = 72, univariate), the “Hospice initiation, odds ratio” value was found to be 0.00. Moreover, in the assay on COVID-19 (setting [2]), the “ICU admission, odds ratio (multivariate)” value amounted to 0.32 and the “Poor clinical outcome rate, odds ratio (multivariate)” value is given as 0.30. The “Hospital length of stay, β-coefficient” value with COVID-19 (multivariate linear regression, NAG (ref = control)) is −4.27. Further, in the assay with COVID-19 (only patients admitted to the ICU, NAG n = 10), the “ICU LOS, median” value was found to be 2.5. Besides, the “ICU LOS, Hodges-Lehmann difference” value in the assay with COVID-19 (only patients admitted to the ICU, NAG n = 10 vs control n = 36, univariate) worked out at 4.0. The “Duration of oxygen, Hodges-Lehmann difference” value in the assay on COVID-19 (only patients that required oxygen support, NAG n = 46 vs control n = 86, univariate) is 0.0 days. Further, in the assay with COVID-19 (univariate analysis), the “Difference between control and NAG groups for intubation rates, hospital LOS, ICU admission, ICU LOS, duration of oxygen use, or hospice initiation” value is on record as “no significant differences”.
